One assay deals with NIH 3T3 EF cells. Description: F-actin network rescue, FITC-phalloidin fluorescence microscopy. The format is cell-based. Conditions: non cytotoxic concentrations (100 nM and 200 nM), three days. On the procedure:
Malignant NIH 3T3 EF cells were seeded onto glass cover slips at a density of 2000 cells per cm^2. The next day, BA016DD537 was applied to NIH 3T3 EF cells at various non cytotoxic concentrations (100 nM and 200 nM). Three days later, cells were fixed for 10 min in PBS containing 3.7% formaldehyde at 4° C. before examination with a fluorescence microscope. The formaldehyde solution was neutralized with 50 mM NH4Cl. Extraction was carried out for 4 min with 0.4% Triton X-100 in PBS. Cells were incubated for 1 h with blocking buffer (3% bovine serum albumin in PBS) and then for 20 min with FITC-phalloidin (Sigma) at room temperature. Cover slips were mounted in Vectashieldk (Zymed) and observed through a fluorescence microscope (Nikon).

In the next assay the test system is NIH 3T3 EF. Description: cloning assay in methylcellulose (colony formation). It counts as cell-based. Particulars: read-out: Inhibition of colony formation (methylcellulose) IC50. As for the experimental part: (§1) Cells were embedded in complete culture medium supplemented with 0.8% methylcellulose (Methocel MC4000, Sigma), seeded in triplicate into 35-mm dishes (Greiner Bio-one Ref 627102, Dominique Dutscher) and incubated at 37° C. in a humidified 5% CO2 atmosphere. The number of cells seeded was 1000 cells per dish. After one to three weeks, according to cell lines, macroscopic clones were counted.

The test system of a further assay is Melanoma B16 cells. Nature of the assay: antitumor activity, i.p. grafted B16 melanoma, survival. It counts as in vivo, B6D2F1 mice. As for the experimental part:
Antitumor activity against B16 melanoma can be assessed in mice using i.p. graft of malignant cells followed by i.p. treatment. This type of protocol which by-pass various biodisponibility parameters gives information roughly on the maximal antitumor activity which can be expected for a given tumor.
Melanoma B16 cells (4×10^5) were injected in B6D2F1 mice using i.p. route at J0. Drugs, dissolved in sterile distilled water (0.5 ml) were injected daily using as well i.p. route from J1 to J9 at various concentrations. Control mice received distilled water only according the same protocol.
Treated and control mice were counted daily. TIC (mean survival of treated mice/mean survival of control mice) was calculated at J9.

The subject of a further assay is B16BL6. Description: cloning assay in methylcellulose (colony formation). Conditions: read-out: Inhibition of colony formation (methylcellulose) IC50. It counts as cell-based. On the procedure:
as §1

For the next assay, the system named is SK-N-MC. Described as above. The format is cell-based. Particulars: read-out: Inhibition of colony formation (methylcellulose) IC50. As for the experimental part:
as §1

The test system of the next assay is A375. Described as above. It counts as cell-based, human. Conditions: read-out: Inhibition of colony formation (methylcellulose) IC50. On the procedure:
as §1

The next assay concerns C9. Described as above. It counts as cell-based, human. Particulars: read-out: Inhibition of colony formation (methylcellulose) IC50. As for the experimental part:
as §1

The test system of a further assay is HT144. Described as above. The format is cell-based, human. Conditions: read-out: Inhibition of colony formation (methylcellulose) IC50. As for the experimental part: as §1
In the next assay the test system is Mia Paca-2. The description is as above. The format is cell-based, human. Particulars: read-out: Inhibition of colony formation (methylcellulose) IC50. On the procedure:
as §1

A further assay relates to NCI-H187. Description: SRB (sulforhodamine B) cell proliferation assay. It counts as cell-based, human. Conditions: NCI-H187, viability 72 h, mean +/− SEM. As for the experimental part:
(§2) Growth studies were performed using the Sulforhodamine B (SRB) calorimetric assay (Sigma).
(§3) SRB assay is used for cell density determination based on the measurement of cellular protein content. This method has been optimized for toxicity screening of compounds in adherent cells in a 96-well format (Skehan et al., Proc. Amer. Assoc. Cancer Res. 1989, 30:2436).
(§4) About 50 000 NCI-H510, NCI-H446 or NCI-H187 cells were seeded in a 96-well culture plate while adding increasing concentrations of BA016FZ539.
(§5) After an incubation period, cell monolayers are fixed with 10% (wt/vol) trichloroacetic acid and stained for 30 min, after which the excess dye is removed by washing repeatedly with 1% (vol/vol) acetic acid. The protein-bound dye is dissolved in 10 mM Tris base solution for optic density determination (OD) at 510 nm using a microplate reader.
(§6) The proliferation rates were calculated from the OD readings using the untreated cells as 100%.

A further assay concerns NCI-H446. Nature of the assay: SRB (sulforhodamine B) cell proliferation assay. It counts as cell-based, human. Conditions: NCI-H446, viability 72 h, mean +/− SEM. On the procedure: as §2, §3, §4, §5, §6
The test system of the next assay is NCI-H510. Description: SRB (sulforhodamine B) cell proliferation assay. Particulars: NCI-H510, viability 72 h, mean +/− SEM. It counts as cell-based, human. As for the experimental part: as §2, §3, §4, §5, §6
Another assay deals with B16F10. Nature of the assay: SRB (sulforhodamine B) cell proliferation assay. It counts as cell-based, murine. Conditions: B16F10 (Example 11); read-out: IC50 (SRB Test-72 h). As for the experimental part: Growth studies were performed using both MTT and SRB calorimetric assay (Sigma). About 1500 B16F10 or 3000 pancreatic cells (MIA PaCa-2 and PANC1) were seeded in a 96-well culture plate before adding increasing concentrations of monomesylate or bimesylate.
The plates were incubated at 37° C. for 3 days and then were treated depending on SRB or MTT protocols (see material and methods).
In these two cases, the proliferation rates were calculated from the OD readings using the untreated cells as 100%.

In general, IC50 refers to the concentration that gives 50% inhibition.

On to `Cc1c2cc[n+](CCN3CCCCC3)cc2c(C)c2c1[nH]c1ccc(O)cc12.[Cl-]` [BA016DD537, 2-(β-piperidinoethyl)-9-hydroxyellipticinium chloride], for which the “rebuilding of actin network / morphology” value in the assay on NIH 3T3 EF cells was “able to rebuilt actin network in tumor cells at non cytotoxic concentration”. Besides, the IC50 in the assay with NIH 3T3 EF is 30 nM. Further, the “T/C (%) (mean survival of treated mice/mean survival of control mice)” value in the assay with Melanoma B16 cells (0.39 mg/kg/inj. i.p. daily J1 to J9) came out at 133%; in the assay with Melanoma B16 cells (0.78 mg/kg/inj. i.p. daily J1 to J9), 149%; in the assay on Melanoma B16 cells (1.56 mg/kg/inj. i.p. daily J1 to J9) it was 168%; in the assay with Melanoma B16 cells (3.12 mg/kg/inj. i.p. daily J1 to J9), 217%; with Melanoma B16 cells (6.25 mg/kg/inj. i.p. daily J1 to J9) it was 196%; in the assay with Melanoma B16 cells (7.5 mg/kg/inj. i.p. daily J1 to J9), 210%. The “T/C (%) (mean survival of treated mice/mean survival of control mice)” value in the assay on Melanoma B16 cells (10 mg/kg/inj. i.p. daily J1 to J9) was 87%. Also, in the assay with Melanoma B16 cells (i.p. graft, i.p. treatment), the “antitumor activity against B16 melanoma (T/C>125% = significant)” value was “marked antitumor activity”.
Consider `CS(=O)(=O)[O-].Cc1c2cc[n+](CCN3CCCCC3)cc2c(C)c2c1[nH]c1ccc(O)cc12` [BA016FZ539, 2-(betapiperidino-2-ethyl)-9-hydroxyellipticinium methanesulfonate], for which the IC50 in the assay on B16BL6 turned out to be 29 nM; in the assay with SK-N-MC, 205 nM; with A375, 97 nM; with C9, 132 nM; with HT144, 125 nM; in the assay with Mia Paca-2 it was 640 nM. Moreover, the IC50 in the assay on NCI-H187 turned out to be 16.9 µM; in the assay with NCI-H446 it was 22.4 µM; with NCI-H510, 5.8 µM; in the assay with B16F10 it was 4.3 µM.

Values taken from patent US20090197906A1, “REVERSION OF MALIGNANT PHENOTYPE WITH 9-HYDROXY ELLIPTICINE DERIVATIVES” (priority 2006, published 2009).
